Where two headings read alike, the source gives them in different places.
What was measured:
[1] = tested on: intraocular pressure in human eyes; conditions: cited from earlier work
[2] = tested on: intraocular pressure (IOP); conditions: rabbits, cited from earlier work
[3] = tested on: intraocular pressure (IOP); test: IOP reduction in cynomolgus monkeys with ocular hypertension produced by laser trabeculoplasty; format: in vivo; conditions: for Percent IOP Reduction at Hours after Dose/Dose# 2/5: 2 hours after fifth dose; for Percent IOP Reduction at Hours after Dose/Dose# 4/5: 4 hours after fifth dose; for Percent IOP Reduction at Hours after Dose/Dose# 6/5: 6 hours after fifth dose; for Percent IOP Reduction at Hours after Dose/Dose# 16/4: 16 hours after fourth dose; for reduction of intraocular pressure (in words): at doses marginal or ineffective for other prostaglandins in published clinical studies
Procedure: The ability of certain compounds of the present invention to reduce intraocular pressure (IOP) was evaluated in cynomolgus monkeys with ocular hypertension produced by previous laser trabeculoplasty in the right eye. Animals had been trained to sit in restraint chairs and conditioned to accept experimental procedures without chemical restraint. IOP was determined with a pneumatonometer after light corneal anesthesia with dilute proparacaine. The test protocol included a treatment regimen consisting of 5 divided doses administered over a period of 2 and ½ days. Doses 2-5 were given 8, 24, 32 and 48 hours after the initial dose. Baseline IOP values were determined prior to treatment with the test formulation, and then IOP was determined 16 hours after the fourth dose, and 2, 4 and 6 hours after the fifth dose. Prostaglandin doses are micrograms of compound contained in each treatment. The two compounds tested are those previously identified as Compounds (II) and (IV).

For `O=C(O)CCCCCCC1C(=O)NC(=O)N1CCC(O)C1CCCCC1` (stereo not shown) [BW245C], the “reduction of intraocular pressure in human eyes” value ([1]; 2.5 μg) is listed as 10% and the “maximum IOP reduction” value ([2]; 25 μg) is listed as ~22%.

In the case of `CC(C)(C)OC(=O)COC/C=C\C[C@@H]1[C@@H](CC[C@@H](O)C2CCCCC2)[C@H](O)C[C@H]1Cl` [Compound (II), (5Z)-(9R, 11R, 15R)-9-Chloro-15-cyclohexyl-11,15-dihydroxy-3-oxa-16,17,18,19,20-pentanor-5-prostenoic Acid t-Butyl Ester], the “reduction of intraocular pressure” value ([3]; 5 μg of compound) is reported as ~50%, the “Percent IOP Reduction at Hours after Dose/Dose# 2/5” value ([3]; PG dose 1 μg per treatment) is reported as 30.8 ± 4.7% and the “Percent IOP Reduction at Hours after Dose/Dose# 4/5” value ([3]; PG dose 1 μg per treatment) is reported as 26.4 ± 4.7%. The “Percent IOP Reduction at Hours after Dose/Dose# 6/5” value ([3]; PG dose 1 μg per treatment) was 24.9 ± 4.0%, the “Percent IOP Reduction at Hours after Dose/Dose# 16/4” value ([3]; PG dose 1 μg per treatment) was 22.3 ± 2.7% and the “Percent IOP Reduction at Hours after Dose/Dose# 2/5” value ([3]; PG dose 5 μg per treatment) was 47.5 ± 5.1%. For the same molecule, the “Percent IOP Reduction at Hours after Dose/Dose# 4/5” value ([3]; PG dose 5 μg per treatment) was 43.7 ± 5.6%, the “Percent IOP Reduction at Hours after Dose/Dose# 6/5” value ([3]; PG dose 5 μg per treatment) was 36.5 ± 5.8% and the “Percent IOP Reduction at Hours after Dose/Dose# 16/4” value ([3]; PG dose 5 μg per treatment, lasered right eye, topical) was 38.3 ± 3.0%. The “reduction of intraocular pressure (in words)” value [3] was “significant reduction”.

For `CC(C)OC(=O)CCC/C=C\C[C@@H]1[C@@H](CC[C@@H](O)C2CCCCC2)[C@H](O)C[C@H]1Cl` [Compound (IV), (5Z)-(9R, 11R, 15R)-9-Chloro-15-cyclohexyl-11,15-dihydroxy-16,17,18,19,20-pentanor-5-prostenoic Acid Isopropyl Ester], the “Percent IOP Reduction at Hours after Dose/Dose# 2/5” value ([3]; PG dose 20 μg per treatment) was 30.1 ± 4.8%, the “Percent IOP Reduction at Hours after Dose/Dose# 4/5” value ([3]; PG dose 20 μg per treatment) was 22.4 ± 5.2% and the “Percent IOP Reduction at Hours after Dose/Dose# 6/5” value ([3]; PG dose 20 μg per treatment) was 19.3 ± 4.3%. The “Percent IOP Reduction at Hours after Dose/Dose# 16/4” value ([3]; PG dose 20 μg per treatment) was 13.9 ± 2.7% and the “reduction of intraocular pressure (in words)” value [3] was “significant reduction”.

In the case of `CCCCC[C@H](O)/C=C/[C@H]1C(=O)C[C@H](O)[C@@H]1C/C=C\CCCC(=O)O` [PGD2], the “reduction of intraocular pressure in human eyes” value ([1]; 50 μg) is given as 12% and the “maximum IOP reduction” value ([2]; 250 μg) is given as “approximately 28%”.
